The values below are quoted from earlier work in article PMC10651775 (Blood, 2022).

Series [1] relates to R/R ATL. The note with it: phase 2 study (5/16); cited from earlier work.
Series [2] concerns R/R ATL. The note with it: phase 2 study (3/12); cited from earlier work.

Read-outs that look alike come from different tables or passages of the source.

As to `Nc1cccc2c1CN(C1CCC(=O)NC1=O)C2=O` (centres unmarked) [lenalidomide], the “ORR in nodal or extranodal lesions” value with R/R ATL [1] is given as 31%.

B1: mogamulizumab: defucosylated anti-CCR4 antibody (antibody, chains of the INN, looked up, V domains shown)
VH: EVQLVESGGDLVQPGRSLRLSCAASGFIFSNYGMSWVRQAPGKGLEWVATISSASTYSYYPDSVKGRFTISRDNAKNSLYLQMNSLRVEDTALYYCGRHSDGNFAFGYWGQGTLVTVSS
VL: DVLMTQSPLSLPVTPGEPASISCRSSRNIVHINGDTYLEWYLQKPGQSPQLLIYKVSNRFSGVPDRFSGSGSGTDFTLKISRVEAEDVGVYYCFQGSLLPWTFGQGTKVEIK
On to B1, for which the “ORR in nodal or extranodal lesions” value with R/R ATL [2] was 25%.
